According to US20120270293A1, “STAND[…] TISSUE SPECIMEN PR[…] […] T[…]” (priority 2009, published 2012):

Molecular target: RNase A (Bos taurus, UniProt P61823)
Details: free solution reaction
Method: FIG. 13. RNase A at designated amount was incubated with NBF at RT or 4° C. for 5 min and then mixed with 2 μg yeast tRNA and incubated at room temperature for 30 min for RNase A digestion and separated by 2% agarose gel. The tRNA molecules were between 50-100 nucleotides in length.
We have designed a series of direct forward biochemistry experiments to compare various chemical reagents such as formalin, RNA Later, methanol/alcohol, as well as heating conditions (boiling or autoclaving) in inhibiting the RNase bioactivity. […] We also compare the inhibition ability of formalin at room temperature and 4 degree C.

Sequence of RNase A (P61823 27-150): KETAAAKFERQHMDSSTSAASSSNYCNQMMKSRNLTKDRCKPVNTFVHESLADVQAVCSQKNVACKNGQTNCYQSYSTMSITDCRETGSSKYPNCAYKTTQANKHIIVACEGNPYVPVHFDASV

## C=O [formalin]
Compared with RNA Later, methanol/alcohol, boiling or autoclaving
  inhibiting the RNase bioactivity: best RNase inhibitor
Room temperature versus 4 degree C
  inhibition ability of formalin at room temperature and 4 degree C: No difference
